Measured values published in US20040266623A1, “SYNERGISTIC QUINCLORAC HERBICIDAL COMPOSITIONS” (priority 2003, published 2004).

Experiments:
Assay in all cases: Greenhouse pot test, postemergent spray, visual control rating converted to percent control
Assay type in all cases: in vivo
[1] = system: white clover; conditions: for Control (1-9) Clover: scale 1=no control, 9=death of plant
Experimental: (§1) Pots of crabgrass, dandelion, white clover, and plantain grown in greenhouse soiless growth media were sprayed with a greenhouse pot sprayer at 43.46 gallons of spray solution/acre and allowed to stand in the greenhouse. Visual observation of the effects made by the herbicidal compositions on the plants in the test pots was recorded for control of crabgrass, dandelion, clover and plantain at 24 hours after treatment (HAT), 48 hours after treatment (HAT), 72 hours after treatment (HAT), 7 days after treatment (DAT), 14 days after treatment (DAT) and 21 days after treatment (DAT). A control rating scale of 1 to 9 was used to record the visual observation of the effect of the herbicidal composition on the plants over the time period of the tests. 1=no control, and 9=death of plant, with intervening numbers representing successive degrees of observed effectiveness of the herbicidal composition over time. The 1-9 control rating scale was converted to percent control in the test data charts that follow.
(§2) The test protocol of S. R. Colby as set out in his article entitled “Calculating Synergistic and Antagonistic Responses of Herbicide Compositions,” received for publication Apr. 11, 1966, Contribution No. 3796 and Scientific Article No. 1271 of the Maryland Agricultural Experiment Station, Department pf Agronomy, University of Maryland was followed to evaluate the synergistic properties of the combination of quinclorac plus a herbicidal protox inhibitor, and a combination of quinclorac, plus a herbicidal protox inhibitor plus a herbicidal auxinic agent as compared with the individual herbicides, using Colby's formulas E=X+Y−XY/100 for a two herbicide combination, where E=the expected percent of inhibition of growth by herbicides, X=the percent inhibition of growth by herbicide A at p lb/A, and Y=the percent inhibition of growth by herbicide B at q lb/A, for a given combination of two herbicides. Colby's formula E=X+Y+Z−(XY+XZ+YZ)/100+XYZ/10,000, was used for the three-way herbicide combination evaluation, where E, X and Y are the same as in the two herbicide formula and Z=the percent inhibition of growth by the third herbicide.

[2] = system: dandelion; conditions: for Control (1-9) Dandelion: scale 1=no control, 9=death of plant
Experimental: as §1, §2

[3] = system: plantain; conditions: for Control (1-9) Plantain: scale 1=no control, 9=death of plant
Experimental: as §1, §2

[4] = system: crabgrass; conditions: for Control (1-9) Crabgrass: scale 1=no control, 9=death of plant
Experimental: as §1, §2

Question: How did the “% Control Clover” value ([1]; Test 3, 7 DAT) turn out when `O=C(O)c1c(Cl)ccc2cc(Cl)cnc12` [Quinclorac @ 0.375 lbs/A] was run?
Answer: Its value is 44.4%.

Question: What about the “Control (1-9) Clover” value ([1]; Test 3, 7 DAT) of the same molecule?
Answer: The value was 4.

Question: What about the “% Control Clover” value ([1]; Test 3, 14 DAT) of the same molecule?
Answer: Its value is 55.6%.

Question: And the “Control (1-9) Clover” value ([1]; Test 3, 14 DAT)?
Answer: The value was 5.

Question: And the “% Control Clover” value ([1]; Test 3, 21 DAT)?
Answer: The value was 88.9%.

Question: And the “Control (1-9) Clover” value ([1]; Test 3, 21 DAT)?
Answer: Its value is 8.

Question: And the “% Control Clover” value ([1]; Test 3, 24 HAT)?
Answer: Its value is 11.1%.

Question: And the “Control (1-9) Clover” value ([1]; Test 3, 24 HAT)?
Answer: The value was 1.

Question: What about the “% Control Clover” value ([1]; Test 3, 72 HAT) of the same molecule?
Answer: Its value is 22.2%.

Question: What about the “Control (1-9) Clover” value ([1]; Test 3, 72 HAT) of the same molecule?
Answer: Its value is 2.

Question: And the “% Control Clover” value ([1]; Test 4, 24 HAT)?
Answer: Its value is 11.1%.

Question: What about the “Control (1-9) Clover” value ([1]; Test 4, 24 HAT) of the same molecule?
Answer: Its value is 1.

Question: What about the “% Control Clover” value ([1]; Test 4, 72 HAT) of the same molecule?
Answer: Its value is 22.2%.

Question: What about the “Control (1-9) Clover” value ([1]; Test 4, 72 HAT) of the same molecule?
Answer: Its value is 2.

Question: And the “% Control Dandelion” value ([2]; Test 3, 7 DAT)?
Answer: The value was 22.2%.

Question: And the “Control (1-9) Dandelion” value ([2]; Test 3, 7 DAT)?
Answer: Its value is 2.

Question: What about the “% Control Dandelion” value ([2]; Test 3, 14 DAT) of the same molecule?
Answer: The value was 44.4%.

Question: What about the “Control (1-9) Dandelion” value ([2]; Test 3, 14 DAT) of the same molecule?
Answer: Its value is 4.

Question: And the “% Control Dandelion” value ([2]; Test 3, 21 DAT)?
Answer: The value was 55.6%.

Question: What about the “Control (1-9) Dandelion” value ([2]; Test 3, 21 DAT) of the same molecule?
Answer: The value was 5.

Question: And the “% Control Dandelion” value ([2]; Test 3, 24 HAT)?
Answer: The value was 11.1%.

Question: What about the “Control (1-9) Dandelion” value ([2]; Test 3, 24 HAT) of the same molecule?
Answer: The value was 1.

Question: And the “% Control Dandelion” value ([2]; Test 3, 72 HAT)?
Answer: The value was 22.2%.

Question: What about the “Control (1-9) Dandelion” value ([2]; Test 3, 72 HAT) of the same molecule?
Answer: The value was 2.

Question: And the “% Control Dandelion” value ([2]; Test 4, 24 HAT)?
Answer: Its value is 22.2%.

Question: And the “Control (1-9) Dandelion” value ([2]; Test 4, 24 HAT)?
Answer: The value was 2.

Question: And the “% Control Dandelion” value ([2]; Test 4, 72 HAT)?
Answer: Its value is 22.2%.

Question: And the “Control (1-9) Dandelion” value ([2]; Test 4, 72 HAT)?
Answer: Its value is 2.

Question: And the “% Control Plantain” value ([3]; Test 3, 7 DAT)?
Answer: Its value is 33.3%.

Question: What about the “Control (1-9) Plantain” value ([3]; Test 3, 7 DAT) of the same molecule?
Answer: The value was 3.

Question: And the “% Control Plantain” value ([3]; Test 3, 14 DAT)?
Answer: The value was 44.4%.

Question: And the “Control (1-9) Plantain” value ([3]; Test 3, 14 DAT)?
Answer: The value was 4.

Question: And the “% Control Plantain” value ([3]; Test 3, 21 DAT)?
Answer: The value was 44.4%.

Question: What about the “Control (1-9) Plantain” value ([3]; Test 3, 21 DAT) of the same molecule?
Answer: Its value is 4.

Question: What about the “% Control Plantain” value ([3]; Test 3, 24 HAT) of the same molecule?
Answer: Its value is 11.1%.

Question: And the “Control (1-9) Plantain” value ([3]; Test 3, 24 HAT)?
Answer: Its value is 1.

Question: What about the “% Control Plantain” value ([3]; Test 3, 72 HAT) of the same molecule?
Answer: Its value is 22.2%.

Question: What about the “Control (1-9) Plantain” value ([3]; Test 3, 72 HAT) of the same molecule?
Answer: The value was 2.

Question: And the “% Control Plantain” value ([3]; Test 4, 24 HAT)?
Answer: Its value is 11.1%.

Question: What about the “Control (1-9) Plantain” value ([3]; Test 4, 24 HAT) of the same molecule?
Answer: The value was 1.

Question: And the “% Control Plantain” value ([3]; Test 4, 72 HAT)?
Answer: Its value is 22.2%.

Question: And the “Control (1-9) Plantain” value ([3]; Test 4, 72 HAT)?
Answer: Its value is 2.

Question: What about the “% Control Crabgrass” value ([4]; Test 3, 7 DAT) of the same molecule?
Answer: The value was 22.2%.

Question: And the “Control (1-9) Crabgrass” value ([4]; Test 3, 7 DAT)?
Answer: The value was 2.

Question: And the “% Control Crabgrass” value ([4]; Test 3, 14 DAT)?
Answer: The value was 44.4%.

Question: What about the “Control (1-9) Crabgrass” value ([4]; Test 3, 14 DAT) of the same molecule?
Answer: Its value is 4.

Question: What about the “% Control Crabgrass” value ([4]; Test 3, 21 DAT) of the same molecule?
Answer: Its value is 66.7%.

Question: And the “Control (1-9) Crabgrass” value ([4]; Test 3, 21 DAT)?
Answer: The value was 6.

Question: What about the “% Control Crabgrass” value ([4]; Test 3, 24 HAT) of the same molecule?
Answer: The value was 11.1%.

Question: What about the “Control (1-9) Crabgrass” value ([4]; Test 3, 24 HAT) of the same molecule?
Answer: Its value is 1.

Question: And the “% Control Crabgrass” value ([4]; Test 3, 72 HAT)?
Answer: Its value is 11.1%.

Question: What about the “Control (1-9) Crabgrass” value ([4]; Test 3, 72 HAT) of the same molecule?
Answer: Its value is 1.

Question: And the “% Control Crabgrass” value ([4]; Test 4, 24 HAT)?
Answer: The value was 11.1%.

Question: And the “Control (1-9) Crabgrass” value ([4]; Test 4, 24 HAT)?
Answer: Its value is 1.

Question: And the “% Control Crabgrass” value ([4]; Test 4, 72 HAT)?
Answer: The value was 11.1%.

Question: What about the “Control (1-9) Crabgrass” value ([4]; Test 4, 72 HAT) of the same molecule?
Answer: Its value is 1.

Question: What does the source list for `Cc1nn(-c2cc(CC(Cl)C(=O)O)c(Cl)cc2F)c(=O)n1C(F)F` (stereo not drawn) [Carfentrazone @ 0.01 lbs/A]?
Answer: % Control Clover ([1]; Test 4, 24 HAT): 22.2%; Control (1-9) Clover ([1]; Test 4, 24 HAT): 2; % Control Clover ([1]; Test 4, 72 HAT): 44.4%; Control (1-9) Clover ([1]; Test 4, 72 HAT): 4; % Control Dandelion ([2]; Test 4, 24 HAT): 22.2%; Control (1-9) Dandelion ([2]; Test 4, 24 HAT): 2; % Control Dandelion ([2]; Test 4, 72 HAT): 33.3%; Control (1-9) Dandelion ([2]; Test 4, 72 HAT): 3; % Control Plantain ([3]; Test 4, 24 HAT): 33.3%; Control (1-9) Plantain ([3]; Test 4, 24 HAT): 3; % Control Plantain ([3]; Test 4, 72 HAT): 88.9%; Control (1-9) Plantain ([3]; Test 4, 72 HAT): 8; % Control Crabgrass ([4]; Test 4, 24 HAT): 11.1%; Control (1-9) Crabgrass ([4]; Test 4, 24 HAT): 1; % Control Crabgrass ([4]; Test 4, 72 HAT): 22.2%; Control (1-9) Crabgrass ([4]; Test 4, 72 HAT): 2
